Experiment: mn = molality of the nth substance listed, in mol/kg
Conditions: 100 kPa, Liquid, Capillary tube (Ostwald / Ubbelohde) method

CO[C@H]1O[C@H](CO)[C@@H](O)[C@H](O)[C@H]1O [methyl-α-D-glucopyranoside] + O
viscosity [mPa·s]
Conditions	m1 = 0.06502	m1 = 0.07733	m1 = 0.09597	m1 = 0.1109	m1 = 0.1219	m1 = 0.122	m1 = 0.1465
288.15 K	1.174	1.181	1.191	1.2	1.207	1.206	1.219
298.15 K	0.917	0.922	0.929	0.935	0.941	0.94	0.95
308.15 K	0.74	0.744	0.749	0.754	0.758	0.757	0.765
318.15 K	0.612	0.615	0.619	0.623	0.625	0.626	0.631

O=C[C@H](O)[C@H](O)[C@H](O)CO [D-ribose] + O
viscosity [mPa·s]
Conditions	m1 = 0.05682	m1 = 0.06586	m1 = 0.07814	m1 = 0.09455	m1 = 0.1051	m1 = 0.1285
288.15 K	1.159	1.163	1.168	1.174	1.178	1.187
298.15 K	0.906	0.909	0.912	0.917	0.919	0.926
308.15 K	0.731	0.733	0.736	0.739	0.741	0.746
318.15 K	0.605	0.607	0.609	0.612	0.614	0.618

OC[C@H]1O[C@@](CO)(O[C@H]2O[C@H](CO)[C@@H](O)[C@H](O)[C@H]2O)[C@@H](O[C@H]2O[C@H](CO)[C@@H](O)[C@H](O)[C@H]2O)[C@@H]1O + O
viscosity [mPa·s]
Conditions	m1 = 0.06211	m1 = 0.07242	m1 = 0.08043	m1 = 0.09028	m1 = 0.1045	m1 = 0.1256	m1 = 0.1344	m1 = 0.1457
288.15 K	1.237	1.253	1.266	1.281	1.303	1.335	1.348	1.365
298.15 K	0.965	0.977	0.987	0.998	1.015	1.039	1.049	1.061
308.15 K	0.777	0.786	0.793	0.802	0.815	0.833	0.841	0.851
318.15 K	0.642	0.65	0.655	0.663	0.673	0.687	0.694	0.701

O=P([O-])([O-])[O-].[K+].[K+].[K+] [tripotassium phosphate] + O
viscosity [mPa·s]
Conditions	288.15 K	298.15 K	308.15 K	318.15 K
m1 = 0.5	1.414	1.133	0.915	0.708
m1 = 1	1.7	1.349	1.09	0.838
m1 = 1.5	2.004	1.598	1.281	1.003
m1 = 2	2.299	1.806	1.441	1.116

O=C[C@@H](O)[C@@H](O)[C@H](O)[C@H](O)CO [D-mannose] + O
viscosity [mPa·s]
Conditions	m1 = 0.0537	m1 = 0.07266	m1 = 0.08053	m1 = 0.08978	m1 = 0.1058	m1 = 0.1176
288.15 K	1.169	1.179	1.184	1.189	1.199	1.206
298.15 K	0.912	0.92	0.924	0.928	0.934	0.939
308.15 K	0.736	0.741	0.744	0.747	0.753	0.756
318.15 K	0.609	0.614	0.616	0.618	0.622	0.625

Source: the NIST ThermoML archive (doi:10.1021/acs.jced.5b00845)
